Measurements: patent US20120040955A1 (priority 2009, published 2012)

Assays:
[1] = reviewed in Cetkovic-Cvrlje and Ucken, 2004; cited from earlier work
[2] = NOD mouse model of type I diabetes; cited from earlier work
[3] = Changelian et al., 2003; cited from earlier work
JAK3 = molecular target: T1, JAK3 (Homo sapiens, UniProt P52333); experiment: kinobeads assay (competition with affinity matrix in mixed Molt4/Ramos cell lysate, dot blot detection), JAK3; type: binding; details: activity level
T1 construct: endogenous in cells; host or cells: Mixed Molt4 / Ramos cell lysate (1:2)
T1 sequence (P52333 1-1124): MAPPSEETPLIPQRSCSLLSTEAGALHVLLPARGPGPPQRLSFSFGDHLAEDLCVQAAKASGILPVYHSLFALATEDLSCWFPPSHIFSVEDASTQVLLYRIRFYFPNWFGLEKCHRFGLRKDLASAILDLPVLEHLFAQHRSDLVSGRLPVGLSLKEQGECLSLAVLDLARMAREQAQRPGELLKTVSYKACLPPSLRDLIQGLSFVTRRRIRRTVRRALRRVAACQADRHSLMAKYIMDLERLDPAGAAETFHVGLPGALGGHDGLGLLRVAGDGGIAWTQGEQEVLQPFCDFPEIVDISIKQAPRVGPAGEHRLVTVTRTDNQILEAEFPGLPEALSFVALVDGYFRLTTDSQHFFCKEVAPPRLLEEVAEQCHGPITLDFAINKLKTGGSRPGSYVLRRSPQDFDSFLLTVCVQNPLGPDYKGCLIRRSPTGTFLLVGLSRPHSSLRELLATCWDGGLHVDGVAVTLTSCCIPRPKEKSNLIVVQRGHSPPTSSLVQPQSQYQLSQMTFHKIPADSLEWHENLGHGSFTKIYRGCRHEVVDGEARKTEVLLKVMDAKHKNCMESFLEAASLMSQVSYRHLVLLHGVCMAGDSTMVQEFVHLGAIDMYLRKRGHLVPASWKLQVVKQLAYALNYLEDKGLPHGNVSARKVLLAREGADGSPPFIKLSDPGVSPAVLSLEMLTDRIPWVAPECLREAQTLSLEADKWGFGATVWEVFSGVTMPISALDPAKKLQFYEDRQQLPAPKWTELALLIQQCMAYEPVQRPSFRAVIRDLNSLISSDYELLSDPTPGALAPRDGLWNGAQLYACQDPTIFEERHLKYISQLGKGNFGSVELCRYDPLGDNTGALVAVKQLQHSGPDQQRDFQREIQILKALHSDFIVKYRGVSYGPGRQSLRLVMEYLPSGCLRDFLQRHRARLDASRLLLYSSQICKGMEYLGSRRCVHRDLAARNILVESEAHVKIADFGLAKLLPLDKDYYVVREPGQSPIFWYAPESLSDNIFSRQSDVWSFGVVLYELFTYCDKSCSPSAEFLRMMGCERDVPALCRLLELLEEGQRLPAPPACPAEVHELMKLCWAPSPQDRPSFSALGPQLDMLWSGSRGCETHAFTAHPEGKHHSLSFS
Method: (§1) The compounds of the present invention as described in the previous examples were tested in a kinobeads assay as described for ZAP-70 (WO-A 2007/137867). Briefly, test compounds (at various concentrations) and the affinity matrix with the immobilized aminopyrido-pyrimidine ligand 24 were added to cell lysate aliquots and allowed to bind to the proteins in the lysate sample. After the incubation time the beads with captured proteins were separated from the lysate. Bound proteins were then eluted and the presence of, JAK2 and JAK3 was detected and quantified using specific antibodies in a dot blot procedure and the Odyssey infrared detection system. Dose response curves for individual kinases were generated and IC50 values calculated. Kinobeads assays for ZAP-70 (WO-A 2007/137867) and for kinase selectivity profiling (WO-A 2006/134056) have been previously described.
(§2) 5× DP buffer: 250 mM Tris-HCl pH 7.4, 25% Glycerol, 7.5 mM MgCl2, 750 mM NaCl, 5 mM Na3VO4; filter the 5× DP buffer through a 0.22 μm filter and store in aliquots at −80° C. The 5× DP buffer is diluted with H2O to 1× DP buffer containing 1 mM DTT and 25 mM NaF.
(§3) Stock solutions of test compounds were prepared in DMSO. In a 96 well plate 30 μl solution of diluted test compounds at 5 mM in DMSO were prepared. Starting with this solution a 1:3 dilution series (9 steps) was prepared. For control experiments (no test compound) a buffer containing 2% DMSO was used.
(§4) Molt4 cells (ATCC catalogue number CRL-1582) and Ramos cells (ATCC catalogue number CRL-1596) were grown in 1 litre Spinner flasks (Integra Biosciences, #182101) in suspension in RPMI 1640 medium (Invitrogen, #21875-034) supplemented with 10% Fetal Bovine Serum (Invitrogen) at a density between 0.15×10^6 and 1.2×10^6 cells/ml. Cells were harvested by centrifugation, washed once with 1× PBS buffer (Invitrogen, #14190-094) and cell pellets were frozen in liquid nitrogen and subsequently stored at −80° C. Cells were homogenized in a Potter S homogenizer in lysis buffer: 50 mM Tris-HCl, 0.8% NP40, 5% glycerol, 150 mM NaCl, 1.5 mM MgCl2, 25 mM NaF, 1 mM sodium vanadate, 1 mM DTT, pH 7.5. One complete EDTA-free tablet (protease inhibitor cocktail, Roche Diagnostics, 1873580) per 25 ml buffer was added. The material was dounced 10 times using a mechanized POTTER S, transferred to 50 ml falcon tubes, incubated for 30 minutes on ice and spun down for 10 min at 20,000 g at 4° C. (10,000 rpm in Sorvall SLA600, precooled). The supernatant was transferred to an ultracentrifuge (UZ)-polycarbonate tube (Beckmann, 355654) and spun for 1 hour at 100.000 g at 4° C. (33.500 rpm in Ti50.2, precooled). The supernatant was transferred again to a fresh 50 ml falcon tube, the protein concentration was determined by a Bradford assay (BioRad) and samples containing 50 mg of protein per aliquot were prepared. The samples were immediately used for experiments or frozen in liquid nitrogen and stored frozen at −80° C.
(§5) Cell lysate (approximately 50 mg protein per plate) was thawed in a water bath at room temperature and then kept on ice. To the thawed cell lysate 1× DP 0.8% NP40 buffer containing protease inhibitors (1 tablet for 25 ml buffer; EDTA-free protease inhibitor cocktail; Roche Diagnostics 1873580) was added in order to reach a final protein concentration of 5 mg/ml total protein. The diluted cell lysate was stored on ice. Mixed Molt4/Ramos lysate was prepared by combining one volume of Molt4 lysate and two volumes of Ramos lysate (ratio 1:2).
(§6) To a 96 well filter plate (Multiscreen HTS, BV Filter Plates, Millipore #MSBVN1250) were added per well: 100 μl affinity matrix (3% beads slurry), 3 μl of compound solution, and 50 μl of diluted lysate. Plates were sealed and incubated for three hours in a cold room on a plate shaker (Heidolph tiramax 1000) at 750 rpm. Afterwards the plate was washed twice with 230 μl washing buffer (1× DP 0.4% NP40). […]

JAK2 = molecular target: T2, JAK2 (Homo sapiens, UniProt O60674); experiment: kinobeads assay (competition with affinity matrix in mixed Molt4/Ramos cell lysate, dot blot detection), JAK2; type: binding; details: activity level
T2 construct: endogenous in cells; host or cells: Mixed Molt4 / Ramos cell lysate (1:2)
T2 sequence (O60674 whole entry): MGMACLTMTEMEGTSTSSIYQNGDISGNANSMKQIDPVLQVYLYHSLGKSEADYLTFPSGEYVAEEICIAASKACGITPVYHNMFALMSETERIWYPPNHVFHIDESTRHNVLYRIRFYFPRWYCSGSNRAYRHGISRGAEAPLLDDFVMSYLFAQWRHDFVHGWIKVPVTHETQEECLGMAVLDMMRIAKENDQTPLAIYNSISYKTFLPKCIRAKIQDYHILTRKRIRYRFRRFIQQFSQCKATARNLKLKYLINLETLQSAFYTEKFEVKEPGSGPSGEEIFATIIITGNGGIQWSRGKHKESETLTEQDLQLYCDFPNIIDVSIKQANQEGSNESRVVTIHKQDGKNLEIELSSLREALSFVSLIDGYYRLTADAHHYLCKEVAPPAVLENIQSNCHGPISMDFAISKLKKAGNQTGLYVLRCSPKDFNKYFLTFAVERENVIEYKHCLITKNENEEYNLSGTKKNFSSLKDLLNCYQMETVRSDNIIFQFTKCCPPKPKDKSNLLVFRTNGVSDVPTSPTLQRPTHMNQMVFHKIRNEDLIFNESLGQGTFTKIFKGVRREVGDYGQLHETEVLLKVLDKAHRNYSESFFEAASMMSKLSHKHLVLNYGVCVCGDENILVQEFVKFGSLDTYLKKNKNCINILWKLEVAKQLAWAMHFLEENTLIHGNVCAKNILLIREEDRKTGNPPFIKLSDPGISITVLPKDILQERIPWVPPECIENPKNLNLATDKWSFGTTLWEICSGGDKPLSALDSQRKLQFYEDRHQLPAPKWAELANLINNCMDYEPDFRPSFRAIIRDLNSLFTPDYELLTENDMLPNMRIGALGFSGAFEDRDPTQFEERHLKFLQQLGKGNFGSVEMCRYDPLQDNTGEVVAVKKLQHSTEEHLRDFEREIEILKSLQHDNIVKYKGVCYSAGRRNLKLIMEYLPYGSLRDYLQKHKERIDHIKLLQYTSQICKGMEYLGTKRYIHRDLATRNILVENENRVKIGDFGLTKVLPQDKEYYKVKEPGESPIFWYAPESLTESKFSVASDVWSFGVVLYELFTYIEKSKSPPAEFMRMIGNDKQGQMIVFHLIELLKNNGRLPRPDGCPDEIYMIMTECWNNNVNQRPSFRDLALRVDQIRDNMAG
Method: as §1, §2, §3, §4, §5, §6

Structure (SMILES) | IC50 (JAK3) | IC50 (JAK2) | severity of GVHD [1] | spontaneous autoimmune diabetes development [2] | efficacy in an animal model of organ transplantation [3]
COc1cc2ncnc(Nc3ccc(O)cc3)c2cc1OC [JANEX-1] | – | – | attenuate the severity of GVHD | prevent spontaneous autoimmune diabetes development | –
C[C@@H]1CCN(C(=O)CC#N)C[C@@H]1N(C)c1ncnc2[nH]ccc12 [CP-690,550] | – | – | – | – | show efficacy
CCNC(=O)c1ccc(F)c(Nc2ncc(Cl)c(Nc3ccccc3NS(=O)(=O)CC(F)(F)F)n2)c1 [Example 44, 3-(5-chloro-4-(2-(2,2,2-trifluoroethylsulfonamido)phenylamino)pyrimidin-2-ylamino)-N-ethyl-4-fluorobenzamide] | 0.1 to 1 µM | > 10 µM | – | – | –
CS(=O)(=O)Nc1ccccc1Nc1nc(Nc2cc(F)c(C(=O)NC3CC3)cc2F)ncc1Cl [Example 57, 4-((5-chloro-4-((2-(methylsulfonamido)phenyl)amino)pyrimidin-2-yl)amino)-N-cyclopropyl-2,5-difluorobenzamide] | < 0.1 µM | > 10 µM | – | – | –

Second part, led by results:

IC50 (JAK3) | IC50 (JAK2) | Structure (SMILES) | severity of GVHD [1] | spontaneous autoimmune diabetes development [2] | efficacy in an animal model of organ transplantation [3]
< 0.1 µM | 0.1 to 1 µM | CN(c1ccccc1Nc1nc(Nc2cc(-n3cnnn3)ccc2F)ncc1F)S(C)(=O)=O [Example 13, N-(2-(5-fluoro-2-(2-fluoro-5-(1H-tetrazol-1-yl)phenylamino)pyrimidin-4-ylamino)phenyl)-N-methylmethanesulfonamide] | – | – | –
< 0.1 µM | 1 to 10 µM | CS(=O)(=O)Nc1ccccc1Nc1nc(Nc2cc(C(=O)N3CCCCC3)ccc2F)ncc1Cl [Example 17, N-(2-(5-chloro-2-(2-fluoro-5-(piperidine-1-carbonyl)phenylamino)pyrimidin-4-ylamino)phenyl)methanesulfonamide] | – | – | –
